These results are taken from DBAASP.

For orientation: MIC means the least concentration at which growth counts as inhibited.

≈ marks a conversion by molar mass, not a printed value.

Holding throughout (assay): ≥ marks a high value that may be exact or a test limit, other limits are often not marked, values filed in µg/mL are converted to µM
Experiment [1] concerns Staphylococcus aureus C623.
For experiment [2], the system named is Candida albicans C627.
The test system of experiment [3] is Salmonella enterica subsp. enterica serovar Typhimurium ATCC 14028s.
In experiment [4] the test system is Pseudomonas aeruginosa K799.
Experiment [5] relates to Aeromonas salmonicida 97-4.
Experiment [6] relates to Escherichia coli CGSC 4908.
Experiment [7] concerns Staphylococcus epidermidis C621.
Experiment [8] deals with Pseudomonas aeruginosa Z61.
In experiment [9] the test system is Aeromonas salmonicida 99-1.
For experiment [10], the system named is Escherichia coli DC2.
The subject of experiment [11] is Salmonella enterica serovar typhimurium MS7953s.
For experiment [12], the system named is Escherichia coli UB1005.
For experiment [13], the system named is Zymomonas mobilis ATCC 10988.
Experiment [14] relates to Micrococcus luteus.
Experiment [15] concerns Staphylococcus epidermidis.
Experiment [16] deals with Escherichia coli.
The test system of experiment [17] is Bacillus cereus.
The test system of experiment [18] is Listeria innocua.
In experiment [19] the test system is Streptococcus uberis.
For experiment [20], the system named is Leuconostoc lactis.
Experiment [21] deals with Pasteurella multocida.
Experiment [22] deals with Staphylococcus aureus.
Experiment [23] has as its system Staphylococcus epidermidis NBRC 12993.
Experiment [24] concerns Escherichia coli NBRC 3972.
The test system of experiment [25] is Candida viswanathii NBRC 10321.
Experiment [26] relates to Aspergillus oryzae NBRC 100959.
The test system of experiment [27] is Micrococcus luteus NBRC 3333.
Experiment [28] has as its system Escherichia coli K88.
For experiment [29], the system named is Staphylococcus aureus ATCC 43300.
Experiment [30] has as its system Lacticaseibacillus rhamnosus 1.0911.
The subject of experiment [31] is Lactiplantibacillus plantarum 8014.
For experiment [32], the system named is Salmonella enterica subsp. enterica serovar Pullorum C79-13.
Experiment [33] deals with Lacticaseibacillus rhamnosus 7469.
Experiment [34] deals with Escherichia coli ATCC 25922.
In experiment [35] the test system is Salmonella enterica subsp. enterica serovar Typhimurium C77-31.
The test system of experiment [36] is Pseudomonas aeruginosa ATCC 27853.
For experiment [37], the system named is Escherichia coli K99.
Experiment [38] relates to Staphylococcus aureus ATCC 25923.
The subject of experiment [39] is Lacticaseibacillus rhamnosus 1.0936.
In experiment [40] the test system is Lacticaseibacillus rhamnosus 1.0385.
The subject of experiment [41] is Salmonella enterica subsp. enterica serovar Typhimurium ATCC 14028.

Regarding `CC(=O)[C@H](C)NC(=O)[C@H](C)NC(=O)[C@H](CC(N)=O)NC(=O)[C@H](CC(C)C)NC(=O)[C@H](Cc1ccc(O)cc1)NC(=O)CNC(=O)CNC(=O)CNC(=O)[C@H](Cc1cnc[nH]1)NC(=O)[C@H](Cc1cnc[nH]1)NC(=O)[C@@H](NC(=O)CNC(=O)[C@H](Cc1cnc[nH]1)NC(=O)[C@H](Cc1ccccc1)NC(=O)[C@H](CC(C)C)NC(=O)[C@H](CC(C)C)NC(=O)[C@H](CCCNC(=N)N)NC(=O)[C@H](Cc1ccccc1)NC(=O)[C@@H](N)Cc1ccccc1)C(C)C` [FFRLLFHGVHHGGGYLNAA], the MIC in experiment [1], in experiment [2], in experiment [3], in [4], in [5] and in [6] was 30.3 µM (≈ 63.9 µg/mL) each time. For the same compound, the MIC in experiment [7], in experiment [8], in experiment [9], in [10], in [11] and in [12] was 30.3 µM (≈ 63.9 µg/mL) each time.

Take `CC[C@H](C)[C@H](NC(=O)[C@H](CCCCN)NC(=O)[C@H](CCC(N)=O)NC(=O)[C@@H](NC(=O)[C@@H](NC(=O)[C@H](CCCN=C(N)N)NC(=O)[C@H](CCCCN)NC(=O)[C@@H](N)Cc1ccccc1)[C@@H](C)CC)C(C)C)C(=O)N[C@@H](CCCCN)C(=O)N[C@@H](CC(=O)O)C(=O)N[C@@H](Cc1ccccc1)C(=O)N[C@@H](CC(C)C)C(=O)N[C@@H](CCCN=C(N)N)C(N)=O` [FKRIVQKIKDFLR]: the MIC in experiment [13] is at least 118 µM.

For the compound `CC[C@H](C)[C@H](NC(=O)[C@H](CO)NC(=O)[C@H](CO)NC(=O)[C@H](C)NC(=O)[C@@H](NC(=O)[C@H](Cc1cnc[nH]1)NC(=O)CNC(=O)[C@H](C)NC(=O)[C@@H](NC(=O)[C@H](CCCCN)NC(=O)[C@H](CCCCN)NC(=O)[C@@H](NC(=O)[C@@H](NC(=O)[C@H](CC(=O)O)NC(=O)[C@H](Cc1ccccc1)NC(=O)[C@H](CC(C)C)NC(=O)CN)[C@@H](C)CC)C(C)C)[C@@H](C)CC)[C@@H](C)CC)C(N)=O` [GLFDIVKKIAGHIASSI], the MIC is at least 56.5 µM in [14]; 28.3 µM (≈ 50 µg/mL) in experiment [15]; above 56.5 µM in [16]; at least 56.5 µM in [17]; at least 56.5 µM in experiment [18]; 28.3 µM (≈ 50 µg/mL) in [19]. Further, the figures for the MIC in experiment [20], in experiment [21] and in [22] were 3.39 µM (≈ 6 µg/mL), at least 56.5 µM and 28.3 µM (≈ 50 µg/mL), respectively.

As to `CC[C@H](C)[C@H](NC(=O)[C@H](CCCCN)NC(=O)[C@@H](N)CCCN=C(N)N)C(=O)N[C@@H](CCCCN)C(=O)N[C@@H](CCCN=C(N)N)C(=O)N[C@@H](Cc1ccc(O)cc1)C(=O)N[C@@H](CC(C)C)C(=O)N[C@@H](CCCN=C(N)N)C(=O)N[C@@H](CCCN=C(N)N)C(=O)N[C@@H](CCSC)C(=O)N[C@@H](Cc1c[nH]c2ccccc12)C(=O)O` [RKIKRYLRRMW], the MIC in [23] was 15.6 µM (≈ 25 µg/mL); in [24] it was at least 125 µM; in [25] it was 15.6 µM (≈ 25 µg/mL); in [26] it was 7.78 µM (≈ 12.5 µg/mL); in experiment [27] it was 15.6 µM (≈ 25 µg/mL).

With `CC(C)C[C@H](NC(=O)[C@H](CC(C)C)NC(=O)[C@H](Cc1c[nH]c2ccccc12)NC(=O)[C@H](Cc1c[nH]c2ccccc12)NC(=O)[C@H](Cc1c[nH]c2ccccc12)NC(=O)[C@@H](N)CCCN=C(N)N)C(N)=O` [RWWWLL], the MIC in experiment [28] was 16 µM (≈ 15.3 µg/mL); in [29] it was 8 µM (≈ 7.67 µg/mL); in experiment [30] it was at least 64 µM; in [31], at least 64 µM; in experiment [32] it was at least 64 µM; in [33], at least 64 µM. In addition, the MIC in experiment [34] is 16 µM (≈ 15.3 µg/mL); in experiment [35], 16 µM (≈ 15.3 µg/mL); in [36] it was above 64 µM; in experiment [37] it was 16 µM (≈ 15.3 µg/mL); in experiment [38] it was 8 µM (≈ 7.67 µg/mL); in experiment [39], at least 64 µM. For the same compound, the MIC was at least 64 µM in experiment [40], 32 µM (≈ 30.7 µg/mL) in experiment [41] and 16 µM (≈ 15.3 µg/mL) in experiment [12].
